Results: patent publication US9963439B2, “Specific inhibitors of cytochrome P450 26 retinoic acid hydroxylase” (University of Washington Through its Center for …, priority 2013, dated 2018)
Like-named read-outs stand apart in the source and are kept apart here.

Key:
[1] = biological target: CYP26A1 (Homo sapiens (Human), UniProt O43174); experiment: CYP26A1 inhibition assay (9-cis-4-OH-RA formation from 9-cis-RA, recombinant microsomes); assay type: biochemical; conditions: for CYP26A1/CYP26B1: ratio of IC50 values, Table 2; for inhibition at 100 µM: read-out: Maximum inhibition of CYP26A1 observed
Sequence of CYP26A1 (O43174 whole entry): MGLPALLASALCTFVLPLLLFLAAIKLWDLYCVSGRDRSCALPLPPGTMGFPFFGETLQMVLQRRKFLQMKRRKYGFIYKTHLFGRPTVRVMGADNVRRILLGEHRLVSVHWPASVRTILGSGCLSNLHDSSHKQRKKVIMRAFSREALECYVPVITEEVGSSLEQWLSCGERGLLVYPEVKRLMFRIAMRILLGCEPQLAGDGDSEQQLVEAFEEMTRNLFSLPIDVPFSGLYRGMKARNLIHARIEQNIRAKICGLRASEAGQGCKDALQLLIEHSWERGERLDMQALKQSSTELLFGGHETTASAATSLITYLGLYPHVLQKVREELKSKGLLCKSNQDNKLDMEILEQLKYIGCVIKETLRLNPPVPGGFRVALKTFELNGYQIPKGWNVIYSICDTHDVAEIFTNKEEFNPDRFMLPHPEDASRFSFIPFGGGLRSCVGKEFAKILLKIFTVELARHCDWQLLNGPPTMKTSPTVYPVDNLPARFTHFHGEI
Experimental: (§1) CYP26A1 and CYP26B1 were expressed in Sf9 cells and used as microsomal fractions supplemented with rat P450 reductase expressed in Escherichia coli as described previously. Incubations were performed with 5 pmol of P450 (CYP26A1 or CYP26B1) and 10 pmol of P450 reductase. The purified rat reductase was added to CYP26A1 or CYP26B1 microsomes, and allowed to incorporate into the membrane for 10 min at room temperature. […] Compounds were dissolved in methanol or dimethyl sulfoxide, and final solvent amounts in the incubations were kept at 1%. The samples were preincubated for 5 min at 37° C. before the reaction was initiated with NADPH (final concentration 1 mM). Incubation times were 1 minute and 5 minutes for CYP26A1 and CYP26B1 incubations respectively.
The formation of 9-cis-4-OH-RA metabolite was monitored and the percent activity remaining in the presence of the inhibitor in comparison to the solvent only control was quantified. For IC50 determination, 6-8 concentrations of the inhibitor spanning below and above the predicted IC50 were tested, and each concentration was analyzed in triplicate. The IC50 values were determined by nonlinear regression using GraphPad Prism, according to equation 1:
(§2) [formula] in which 100%*(Vi/V) is the percentage of activity remaining at a given inhibitor (I) concentration, (Vi/V)max*100% is the fitted maximum percentage activity remaining, and (Vi/V)min*100% is the minimum percentage activity remaining.

[2] = biological target: T1, CYP26B1 (Homo sapiens (Human), UniProt Q9NR63); experiment: CYP26B1 inhibition assay (9-cis-4-OH-RA formation from 9-cis-RA, recombinant microsomes); assay type: biochemical
T1 sequence (Q9NR63 whole entry): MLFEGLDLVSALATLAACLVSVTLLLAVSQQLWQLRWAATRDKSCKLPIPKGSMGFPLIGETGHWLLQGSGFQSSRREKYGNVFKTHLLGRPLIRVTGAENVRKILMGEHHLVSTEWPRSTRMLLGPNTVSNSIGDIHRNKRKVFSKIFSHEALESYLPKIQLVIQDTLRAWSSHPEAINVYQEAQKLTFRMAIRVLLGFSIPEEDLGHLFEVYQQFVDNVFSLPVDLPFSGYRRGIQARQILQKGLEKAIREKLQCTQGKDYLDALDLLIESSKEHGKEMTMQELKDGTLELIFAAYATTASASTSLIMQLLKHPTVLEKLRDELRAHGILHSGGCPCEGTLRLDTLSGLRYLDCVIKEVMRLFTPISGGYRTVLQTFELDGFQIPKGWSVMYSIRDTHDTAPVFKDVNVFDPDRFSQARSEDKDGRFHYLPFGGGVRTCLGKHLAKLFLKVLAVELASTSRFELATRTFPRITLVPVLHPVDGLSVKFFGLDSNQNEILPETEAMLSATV
Experimental: as §1
The formation of 9-cis-4-OH-RA by CYP26B1 was measured by HPLC as described previously for CYP26A1. Product formation was linear from 1 minute to 8 minutes. […] Five minutes after reactions were initiated with NADPH the reactions were quenched with 5 ml of ethyl acetate, acitretin was added as an internal standard, samples extracted, evaporated to dryness, reconstituted in methanol and analyzed by HPLC as described previously. A standard curve of 9-cis-4-OH-RA was used to quantify product formation by analysis of the peak area of the primary metabolite on an HPLC.
Eighteen compounds were tested as potential inhibitors of CYP26A1 and CYP26B1. The formation of 9-cis-4-OH-RA metabolite was monitored and the percent activity remaining in the presence of the inhibitor in comparison to the solvent only control was quantified. For IC50 determination, 6-8 concentrations of the inhibitor spanning below and above the predicted IC50 were tested, and each concentration was analyzed in triplicate. The IC50 values were determined by nonlinear regression using GraphPad Prism, according to equation 1:
as §2
[formula] in which Kd is the affinity constant of the inhibitor, [I] is the concentration of inhibitor, [E] is the concentration of enzyme, and [EI] is the concentration of the enzyme-inhibitor complex.

[3] = biological target: T1, CYP26B1; experiment: Michaelis-Menten kinetics of RA hydroxylation by CYP26B1
Experimental: Incubations were performed with 5 pmol of P450 (CYP26A1 or CYP26B1) and 10 pmol of P450 reductase. The purified rat reductase was added to CYP26A1 or CYP26B1 microsomes, and allowed to incorporate into the membrane for 10 min at room temperature. […] Compounds were dissolved in methanol or dimethyl sulfoxide, and final solvent amounts in the incubations were kept at 1%. The samples were preincubated for 5 min at 37° C. before the reaction was initiated with NADPH (final concentration 1 mM). Incubation times were 1 minute and 5 minutes for CYP26A1 and CYP26B1 incubations respectively.
The formation of 9-cis-4-OH-RA by CYP26B1 was measured by HPLC as described previously for CYP26A1. Product formation was linear from 1 minute to 8 minutes. […] Five minutes after reactions were initiated with NADPH the reactions were quenched with 5 ml of ethyl acetate, acitretin was added as an internal standard, samples extracted, evaporated to dryness, reconstituted in methanol and analyzed by HPLC as described previously. A standard curve of 9-cis-4-OH-RA was used to quantify product formation by analysis of the peak area of the primary metabolite on an HPLC. The Michaelis-Menten equation was fit to the data using GraphPad Prism (GraphPad Software Inc., San Diego, Calif.), and the Km and Vmax values were obtained from this fit.

[4] = biological target: CYP2C9 (Homo sapiens (Human), UniProt P11712); experiment: Inhibition of CYP2C9 in pooled human liver microsomes (diclofenac probe)
Sequence of CYP2C9 (P11712 whole entry): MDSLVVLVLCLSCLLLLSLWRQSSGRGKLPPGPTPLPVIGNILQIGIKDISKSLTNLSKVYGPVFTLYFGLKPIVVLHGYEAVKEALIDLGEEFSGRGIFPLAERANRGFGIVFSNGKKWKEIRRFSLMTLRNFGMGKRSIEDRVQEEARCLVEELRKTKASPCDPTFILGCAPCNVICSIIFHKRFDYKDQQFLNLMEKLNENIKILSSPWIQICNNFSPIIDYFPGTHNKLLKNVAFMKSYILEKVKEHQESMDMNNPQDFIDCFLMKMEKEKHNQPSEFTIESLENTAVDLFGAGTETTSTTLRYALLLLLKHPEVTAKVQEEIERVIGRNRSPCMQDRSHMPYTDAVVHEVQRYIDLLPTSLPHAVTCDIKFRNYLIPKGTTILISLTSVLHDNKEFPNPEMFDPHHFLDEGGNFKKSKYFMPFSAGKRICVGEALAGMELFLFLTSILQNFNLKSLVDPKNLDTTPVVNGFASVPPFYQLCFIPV
Experimental: (§3) Concentrations of organic solvents were kept to <1% (v/v). All incubations were pre-incubated at 37° C. for 5 minutes prior to addition of 1 mM NADPH (final concentration). Incubations were stopped after 5 (CYP3A4) or 15 minutes (CYP2C8 and CYP2C9) with one volume (v/v) of ice-cold acetonitrile containing 0.1 μM tolbutamide as an internal standard. All samples were vortexed and centrifuged prior to LC-MS/MS analysis.
(§4) Detection of 6-hydroxypaclitaxel, 4-hydroxydiclofenac or 1′-hydroxymidazolam was achieved using a Gemini C18 2.0×30 mm 5 column (Phenomenex, Torrance, Calif.). Gradient elution (flow rate=500 μL/min) carried out using a mobile phase system consisting of (A) 5 mM ammonium formate with 0.1% formic acid and (B) acetonitrile with 0.1% formic acid. HPLC flow was diverted from the MS/MS system for the first 20 seconds to remove any non-volatile salts. Generic MS parameters included the curtain gas (10 arbitrary units), CAD gas (medium), ionspray voltage (4500 V), source temperature (450° C.) and ion source gas 1 and gas 2 (40 arbitrary units, each). Interface heaters were kept on for all analytes. Probe substrate mass transitions were identical to previously published methods. Briefly, the LC-MS/MS system utilized was comprised of an Applied Biosystems 4000 Q-Trap equipped with an electrospray ionization source (Applied Biosystems, Foster City, Calif.). The MS/MS system was coupled to two LC-20AD pumps with an in-line CBM-20A controller and DGU-20A5 solvent degasser (shinadzu, Columbia, Md.) and a LEAP CTC HTS PAL autosampler equipped with a dual-solvent self-washing system (CTC Analytics, Carrboro, N.C.). An injection volume of 20 μL was used for all analyses. Standard curves and mass spectrometry data were fit using Analyst (version 1.4; Applied Biosystems, Foster City, Calif.).

[5] = biological target: CYP2C8 (Homo sapiens (Human), UniProt P10632); experiment: Inhibition of CYP2C8 in pooled human liver microsomes (paclitaxel probe); assay type: in vitro ADME
Sequence of CYP2C8 (P10632 whole entry): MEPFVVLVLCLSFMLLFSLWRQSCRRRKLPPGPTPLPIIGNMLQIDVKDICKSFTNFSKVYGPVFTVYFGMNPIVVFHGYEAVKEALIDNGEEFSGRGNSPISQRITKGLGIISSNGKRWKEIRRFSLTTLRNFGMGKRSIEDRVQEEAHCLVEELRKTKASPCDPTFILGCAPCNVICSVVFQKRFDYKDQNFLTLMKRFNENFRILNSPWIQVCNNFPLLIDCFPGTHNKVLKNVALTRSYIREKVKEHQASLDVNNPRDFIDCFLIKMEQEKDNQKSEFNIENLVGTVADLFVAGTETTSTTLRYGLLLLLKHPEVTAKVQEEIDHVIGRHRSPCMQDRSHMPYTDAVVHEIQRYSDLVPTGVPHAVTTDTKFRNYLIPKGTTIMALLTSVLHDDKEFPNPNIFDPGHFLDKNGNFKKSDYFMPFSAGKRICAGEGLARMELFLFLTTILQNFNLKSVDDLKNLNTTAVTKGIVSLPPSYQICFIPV
Experimental: as §3, §4

[6] = biological target: CYP3A4 (Homo sapiens (Human), UniProt P08684); experiment: Inhibition of CYP3A4 in pooled human liver microsomes (midazolam probe); assay type: in vitro ADME
Sequence of CYP3A4 (P08684 whole entry): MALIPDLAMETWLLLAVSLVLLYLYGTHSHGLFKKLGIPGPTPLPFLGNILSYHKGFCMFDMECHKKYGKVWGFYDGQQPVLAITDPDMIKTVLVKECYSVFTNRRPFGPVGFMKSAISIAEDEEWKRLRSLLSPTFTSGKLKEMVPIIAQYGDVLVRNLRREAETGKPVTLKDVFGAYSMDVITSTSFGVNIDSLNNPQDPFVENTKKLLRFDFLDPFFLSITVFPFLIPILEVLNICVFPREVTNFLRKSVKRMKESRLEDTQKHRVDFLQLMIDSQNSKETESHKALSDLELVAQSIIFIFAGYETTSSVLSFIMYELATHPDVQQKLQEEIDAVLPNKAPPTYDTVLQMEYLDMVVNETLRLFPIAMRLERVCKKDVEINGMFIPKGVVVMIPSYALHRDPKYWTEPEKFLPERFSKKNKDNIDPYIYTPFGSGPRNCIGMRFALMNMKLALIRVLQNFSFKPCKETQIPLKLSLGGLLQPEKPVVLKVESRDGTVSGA
Experimental: as §3, §4

[7] = animal models; cited from earlier work
[8] = test system: cytochromes involved in the biosynthetic pathways of testicular, ovarian and adrenal steroids; conditions: Berth-Jones 2000; Bruynseels 1990; cited from earlier work
[9] = Table 3, unit inferred, read-out: CYP2681 (CYP26B1, IC50)
[10] = Table 3, unit inferred, read-out: CYP26A1 (IC50)
[11] = Table 4, acidic compounds, unit inferred, read-out: CYP26B1 (IC50)
[12] = Table 4, acidic compounds, unit inferred, read-out: CYP26A1 (IC50)
[13] = read-out: CYP2C9 IC50 nM, pooled human liver microsomes, diclofenac 5 μM
[14] = pooled human liver microsomes, paclitaxel 4 μM

SMILES: CC1(C)CCC(C)(C)c2cc(NC(=O)c3ccc(C(=O)O)cc3)ccc21
- CYP26A1/CYP26B1 [1]: 1.8

SMILES: CC1(C)CCC(C)(C)c2cc(C(=O)Nc3ccc(C(=O)O)cc3)ccc21
- CYP26A1/CYP26B1 [1]: 2.5

SMILES: C/C(=C\c1ccc(C(=O)O)cc1)c1ccc2c(c1)C(C)(C)CCC2(C)C
- CYP26A1/CYP26B1 [1]: 1.1

SMILES: CC1(C)CCC(C)(C)c2cc(C(=O)COc3ccc(C(=O)O)cc3)ccc21
- CYP26A1/CYP26B1 [1]: 4

SMILES: CC1(C)CCC(C)(C)c2cc(C(O)COc3ccc(C(=O)O)cc3)ccc21 (stereo not shown)
- CYP26A1/CYP26B1 [1]: 2

SMILES: CC1(C)CCC(C)(C)c2cc(/C(COc3ccc(C(=O)O)cc3)=N\O)ccc21
- CYP26A1/CYP26B1 [1]: 3

SMILES: CC1(C)C(=O)C(C)(C)c2cc(C(=O)Nc3ccc(C(=O)O)cc3)ccc21
- CYP26A1/CYP26B1 [1]: 0.6

SMILES: CC1(C)CCSc2ccc(C#Cc3ccc(C(=O)O)cn3)cc21
- CYP26A1/CYP26B1 [1]: 47

SMILES: CC1(C)CCC(C)(C)c2cc(C#Cc3ccc(C(=O)O)cc3)ccc21
- CYP26A1/CYP26B1 [1]: 9

SMILES: CCOC(=O)c1ccc(C#Cc2ccc3c(c2)C(C)(C)CCS3)nc1
- inhibition at 100 µM [1]: 15%

SMILES: COC(=O)c1ccc(OCC(=O)c2ccc3c(c2)C(C)(C)CCC3(C)C)cc1
- inhibition at 100 µM [1]: 15%

SMILES: COC(=O)c1ccc(OC/C(=N/O)c2ccc3c(c2)C(C)(C)CCC3(C)C)cc1
- CYP26A1/CYP26B1 [1]: 8

SMILES: COC(=O)c1ccc(OC/C(=N\O)c2ccc3c(c2)C(C)(C)CCC3(C)C)cc1
- CYP26A1/CYP26B1 [1]: 7

SMILES: C=C(c1ccc(C(=O)O)cc1)c1cc2c(cc1C)C(C)(C)CCC2(C)C
- IC50 [2, 9]: 4000 nM
- IC50 [1, 10]: 12300 nM

SMILES: CC1(C)CCC(C)(C)c2cc(C3(c4ccc(C(=O)O)cc4)SCCS3)ccc21
- IC50 [2, 11]: 1090 nM
- IC50 [1, 12]: 1280 nM

SMILES: CC1(C)CCC(C)(C)c2cc(C3(c4ccc5cc(C(=O)O)ccc5c4)OCCO3)ccc21
- IC50 [2, 11]: 1030 nM
- IC50 [1, 12]: 109 nM

SMILES: COc1ccc(-c2ccc(CCC(=O)O)cc2)cc1C12CC3CC(CC(C3)C1)C2
- IC50 ([2]; Table 5, read-out: CYP26B1): 516 nM

SMILES: O=C(O)CCc1ccc(-c2ccc(O)c(C34CC5CC(CC(C5)C3)C4)c2)cc1
- IC50 ([2]; Table 5, read-out: CYP26B1): 302 nM
- IC50 ([1]; Table 5, read-out: CYP26A1): 314 nM

SMILES: COc1ccc(-c2ccc(/C=C/C(=O)O)cc2)cc1C12CC3CC(CC(C3)C1)C2
- IC50 ([2]; Table 5, read-out: CYP26B1): > 25000 nM
- IC50 ([1]; Table 5, read-out: CYP26A1): > 25000 nM

SMILES: COc1ccc(Nc2ccc(/C=C/C(=O)O)cc2)cc1C12CC3CC(CC(C3)C1)C2
- IC50 ([2]; Table 5, read-out: CYP26B1): 87 nM
- IC50 ([1]; Table 5, read-out: CYP26A1): 729 nM

SMILES: O=C(O)/C=C/c1ccc(Nc2ccc(O)c(C34CC5CC(CC(C5)C3)C4)c2)cc1
- IC50 ([2]; Table 5, read-out: CYP26B1): 95 nM
- IC50 ([1]; Table 5, read-out: CYP26A1): 232 nM

SMILES: COc1ccc(Nc2ccc(CCC(=O)O)cc2)cc1C12CC3CC(CC(C3)C1)C2
- IC50 ([2]; Table 5, read-out: CYP26B1): 51 nM
- IC50 ([1]; Table 5, read-out: CYP26A1): 51 nM

SMILES: O=C(O)CCc1ccc(Nc2ccc(O)c(C34CC5CC(CC(C5)C3)C4)c2)cc1
- IC50 ([2]; Table 5, read-out: CYP26B1): 108 nM
- IC50 ([1]; Table 5, read-out: CYP26A1): 1750 nM

SMILES: CC1(C)CCC(C)(C)c2cc(C3(c4ccc(CCC(=O)O)cc4)OCCO3)ccc21
- IC50 ([2]; Table 5, read-out: CYP26B1): 14500 nM
- IC50 ([1]; Table 5, read-out: CYP26A1): 340 nM

SMILES: CC1(C)CCC(C)(C)c2cc(C3(c4ccc(/C=C/C(=O)O)cc4)SCCS3)ccc21
- IC50 ([2]; Table 5, read-out: CYP26B1): 4400 nM
- IC50 ([1]; Table 5, read-out: CYP26A1): 6 nM

SMILES: CC1(C)CCC(C)(C)c2cc(Cc3ccc(CCC(=O)O)cc3)ccc21
- IC50 ([2]; Table 5, read-out: CYP26B1): 1660 nM
- IC50 ([1]; Table 5, read-out: CYP26A1): > 10000 nM

SMILES: CC1(C)CCC(C)(C)c2cc(C3(c4ccc(/C=C/C(=O)O)cc4)OCCO3)ccc21
- IC50 ([2]; Table 5, read-out: CYP26B1): > 10000 nM
- IC50 ([1]; Table 5, read-out: CYP26A1): 239 nM

SMILES: CC1=C(/C=C/C(C)=C\C=C\C(C)=C\C(=O)O)C(C)(C)CCC1 [Example 9-cis-RA, 9-cis-RA]
- Vmax for 9-cis-4-OH-RA formation by CYP26B1 [3]: 3.6 pmol/min/pmol P450
- fold greater Km than atRA for CYP26B1 [3]: 50 fold
- intrinsic clearance ([3]; from Km and Vmax): 6.5 µL/min
- Km ([3]; read-out: Km for 9-cis-4-OH-RA formation by CYP26B1, substrate 9-cis-RA 50-1000 nM, 5 min): 0.555 µM

SMILES: CC(C(c1ccc(Nc2nc3ccccc3s2)cc1)n1ccnc1)N(C)C (stereo not shown) [Example R116010, R116010]
- IC50 [4]: > 1000 nM
- IC50 [4, 13]: 5760 nM
- IC50 ([5]; bound stated): > 1000 nM
- IC50 [5, 14]: 1760 nM
- Inhibition of CYP3A4 (in words) [6]: potent CYP3A4 inhibitors

SMILES: CC1=C(/C=C/C(C)=C/C=C/C(C)=C/C(=O)O)C(C)(C)CCC1 [atRA, all-trans-retinoic acid]
- Km ([3]; read-out: Km of atRA for CYP26B1): 0.019 µM

SMILES: CC1(C)CCC(C)(C)c2cc(C3(c4ccc(C(=O)O)cc4)OCCO3)ccc21 [drawing 145]
- IC50 [2, 9]: 14200 nM
- IC50 [1, 10]: 3300 nM

SMILES: CC1(C)CCC(C)(C)c2cc(C3(c4ccc5cc(C(=O)O)ccc5c4)SCCS3)ccc21 [drawing 146]
- IC50 [2, 9]: 1030 nM
- IC50 [1, 10]: 61 nM

SMILES: CC1(C)CCC(C)(C)c2cc(C3(c4ccc(C(=O)O)cc4)OCCO3)ccc21 [drawing 148]
- IC50 [2, 11]: 12600 nM
- IC50 [1, 12]: 7780 nM

SMILES: CC1(C)CCC(C)(C)c2cc(C3(c4ccc5cc(C(=O)O)ccc5c4)SCCS3)ccc21 [drawing 152]
- IC50 [1, 12]: 61 nM

SMILES: Clc1cccc(C(c2ccc3[nH]cnc3c2)n2ccnc2)c1 (stereo not shown) [liarozole]
- IC50 ([2]; Table 5, read-out: CYP26B1): 18 nM
- Inhibition of CYP2C9 (in words) ([4]; pooled human liver microsomes): weak inhibitor
- IC50 [4, 13]: 1630 nM
- Inhibition of CYP2C8 (in words) ([5]; pooled human liver microsomes): inhibited CYP2C8 potently
- IC50 [5, 14]: 480 nM
- effect on concentration of atRA in vivo [7]: increase the concentration of atRA in vivo
- inhibition of other cytochromes of steroid biosynthesis [8]: also inhibits other cytochromes involved in the biosynthetic pathways of testicular, ovarian and adrenal steroids
- Inhibition of CYP3A4 (in words) [6]: weak inhibitor

SMILES: CCC(CC)[C@H](c1ccc(Nc2nc3ccccc3s2)cc1)n1cncn1 [talarozole, (R)—N-[4-[2-ethyl-1-(1H-1,2,4-triazol-1-yl)butyl]phenyl]-2-benzo-thiazolamine]
- IC50 ([2]; Table 5, read-out: CYP26B1): 0.46 nM
- Inhibition of CYP2C9 (in words) ([4]; pooled human liver microsomes): nanomolar affinity
- IC50 [4, 13]: 680 nM
- Inhibition of CYP2C8 (in words) ([5]; pooled human liver microsomes): nanomolar affinity
- IC50 [5, 14]: 220 nM
- effect on concentration of atRA in vivo [7]: increase the concentration of atRA in vivo
- IC50 ([1]; Table 5, read-out: CYP26A1): 5.1 nM
- Inhibition of CYP3A4 (in words) [6]: nanomolar affinity
